Source: patent US20240067625A1, “SMALL-MOLECULE MODULATORS OF THE ORPHAN NUCLEAR RECEPTOR TLX” (priority 2020, published 2024)

Assays:
TLX LBD = TLX LBD (Homo sapiens (Human), UniProt Q9Y466); experiment: ALPHA screen assay for TLX LBD and coactivator peptide recruitment; format: biochemical; settings: Table 3
Description: Assays were performed according to the manufacturer's protocol (PerkinElmer, USA), with the following modifications: Ligands were tested for TLX-coactivator binding in 50 mM phosphate buffer, 150 mM NaCl, pH 7, 1 mM DTT and 100 μM CHAPS. Ligands were dissolved and diluted in DMSO as stocks and were prepared in assay buffer from the original stock in the 100% DMSO and added to the assay plate. Biotinylated SRC peptide and polyhistidine tagged TLX LBD were diluted in assay buffer, subsequently added to respective ALPHA beads, under low light. The plates were spun down, mixed with a shaker and incubated for 120 minutes and read on a TECAN Plate reader using the manufacturer's protocol.

human brain organoids = experiment: TLX agonist activity in human brain organoids (RNA expression of NSC and immature neuron genes); format: cell-based; settings: 25 μM for 3 days, organoids at 68 days; compared to controls; FIG. 13
Source text: Human induced pluripotent cells (iPSCs) were used to generate brain organoids using a modified Pasca protocol as previously described. See, Manganas, et al. (Sci Rep […], 11: 5546) and Pasca, et al. (Nat. Methods 2015, 12: 671-678), which are incorporated herein by reference. Within 2 months, the protocol produces organoids with a variety of cell types that mimic early human brain (neural stem cells, progenitors, different types of neurons at different maturation stage, astrocytes, oligodendrocytes). About 300 organoids can be generated per batch and thus the model provides for testing of different experimental paradigms in the same batch. Organoids were treated at 68-days with 25 μM of reference compound 29, test compounds 95 and […]), or vehicle (0.03N HCl) for 3 days, after which they were processed to examine the expression of NSC genes (PAX6, BLBP) and immature neuron genes (PROM1, DCX).

Chain of TLX LBD (Q9Y466 155-383): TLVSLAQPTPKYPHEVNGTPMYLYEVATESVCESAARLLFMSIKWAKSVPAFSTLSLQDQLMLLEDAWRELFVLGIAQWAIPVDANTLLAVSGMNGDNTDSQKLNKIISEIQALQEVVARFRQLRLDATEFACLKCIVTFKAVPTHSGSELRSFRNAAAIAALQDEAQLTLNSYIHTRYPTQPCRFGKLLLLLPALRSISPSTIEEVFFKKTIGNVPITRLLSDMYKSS

## CC(C)CCNc1ncccc1C(=O)N1CCN(Cc2ccccc2)C[C@@H]1Cc1ccccc1 [Compound 96]
TLX LBD
  EC50: 3.15 pM
TLX LBD; 200 μM, mean (std. dev.)
  Average ALPHA signal at 200 μM (std. dev.): 2.41 (0.07)
Human brain organoids
  expression of NSC genes (PAX6, BLBP) and immature neuron genes (PROM1, DCX): substantially increased the expression levels of tested genes
